Patent US20260015339A1, “CALIX[4]ARENES WITH HIGH ANTICANCER ACTIVITY” (UNIVERSITE GRENOBLE ALPES, priority 2023, published 2026)

Tests used:
Format in all cases: cell-based
[1] = tested on: A549 human lung cancer cell line; assay: Inhibition of A549 cell proliferation (cell count); details: 2 μM, until 72 hours
Procedure: (§1) The inhibition of a A549 human lung cancer cell line proliferation by the calix[4]arene of the formula (2) was determined by exposure of said A549 human lung cancer cell line to a concentration of 2 μM of the calix[4]arene of the formula (2) until 72 hours. The absolute number of cells were counted in the treated and untreated conditions before treatment (N0) and after 72 hours (Nt).
The FIG. 1 is a graph showing: • the profile of the proliferation index Nt/N0 of the A549 cells after exposure with the calix[4]arene of the formula (2) with respect to the time (i.e. the curve entitled “calix[4]arene (2)”), • the profile of the proliferation index Nt/N0 of the A549 cells without any exposure with the calix[4]arene of the formula (2) with respect to the time (i.e. the curve entitled “untreated”).
“Nt” is number of cells at time “t” and “No” is number of cells before treatment.

[2] = tested on: H322 lung carcinoma cell line; assay: Inhibition of H322 cell proliferation (cell count); details: 3 μM, until 72 hours
Procedure: as §1, with “a H322” for “a A549 human”, “lung carcinoma” for “lung cancer”, “said H322” for “said A549 human”, “of 3” for “of 2”
The FIG. 3 is a graph showing: • the profile of the proliferation index Nt/N0 of the H322 cells after exposure with the calix[4]arene of the formula (2) with respect to the time (i.e. the curve entitled “calix[4]arene (2)”), • the profile of the proliferation index Nt/N0 of the H322 cells without any exposure with the calix[4]arene of the formula (2) with respect to the time (i.e. the curve entitled “untreated”).

[3] = tested on: H322 lung carcinoma cells; assay: MTS cytotoxicity assay on H322; details: NCI-H322; H322, 72 hours of treatment
Procedure: H322 lung carcinoma cells were seeded in 96-well plates together with the calix[4]arene of the formula (2). Cells were grown in RPMI-1640 supplemented with GlutaMAX™ (Gibco™) and fetal calf serum (FCS, 10%) and treated with a broad range of concentrations of the calix[4]arene of the formula (2). After 72 hours of treatment, the cytotoxicity was measured by means of the IC50 value, using the kit “CellTiter 96R AQuous One Solution Cell Proliferation Assay (MTS)” from Promega™. Following 30 minutes of incubation with the MTS reagent, the endpoint measurements were done in triplicate at 485 nm, using a fluorescence plate reader.
H322 lung carcinoma cells were seeded in 96-well plates together with the compound of the 2nd comparative example of the formula (XI). Cells were grown in RPMI-1640 supplemented with GlutaMAX™ (Gibco™) and fetal calf serum (FCS, 10%) and treated with a broad range of concentrations of the 2nd comparative example of the formula (XI). After 72 hours of treatment, the cytotoxicity was measured by means of the IC50 value, using the kit “CellTiter 96R AQuous One Solution Cell Proliferation Assay (MTS)” from Promega™. Following 30 minutes of incubation with the MTS reagent, the endpoint measurements were done in triplicate at 485 nm, using a fluorescence plate reader.
H322 lung carcinoma cells were seeded in 96-well plates together with the 1st comparative example of the formula (X). Cells were grown in RPMI-1640 supplemented with GlutaMAX™ (Gibco™) and fetal calf serum (FCS, 10%) and treated with a broad range of concentrations of the compound of the formula (X). After 72 hours of treatment, the cytotoxicity was measured by means of the IC50 value, using the kit “CellTiter 96R AQuous One Solution Cell Proliferation Assay (MTS)” from Promega™. Following 30 minutes of incubation with the MTS reagent, the endpoint measurements were done in triplicate at 485 nm, using a fluorescence plate reader.
H322 lung carcinoma cells were seeded in 96-well plates together with the tested calix[4]arenes. Cells were grown in RPMI-1640 supplemented with GlutaMAX™ (Gibco™) and fetal calf serum (FCS, 10%) and treated with a broad range of concentrations of the tested calix[4]arenes. After 72 hours of treatment, the cytotoxicity was measured by means of the IC50 value, using the kit “CellTiter 96R AQuous One Solution Cell Proliferation Assay (MTS)” from Promega™. Following 30 minutes of incubation with the MTS reagent, the endpoint measurements were done in triplicate at 485 nm, using a fluorescence plate reader.

A2058 = assay: PROLiFiler-Cell Panel Screening (CellTiterGlo); details: Homo sapiens; Skin, A2058, 72 hours
Procedure: (§2) For the assays, cells were seeded in white cell culture-treated flat and clear bottom 384-well multiwall plates and incubated at 37° C. overnight before the calix[4]arene of the formula (2) or the reference compound were added. After incubation for 72 hours at 37° C. at 5% or 10% CO2 depending on the medium, cell plates were equilibrated to room temperature (i.e. 20° C.) for one hour, CellTiterGlo® reagent from the firm Promega was added and luminescence was measured approximately an hour later using a luminometer.
(§3) Raw data were converted into percent cell viability relative to the high and low control, which were set to 100% and 0%, respectively.

A549 = assay: PROLiFiler-Cell Panel Screening (CellTiterGlo); details: Homo sapiens; Lung, A549, 72 hours
Procedure: as §2, §3

BEN = assay: PROLiFiler-Cell Panel Screening (CellTiterGlo); details: Lung, 72 hours
Procedure: as §2, §3

BT-20 = assay: PROLiFiler-Cell Panel Screening (CellTiterGlo); details: Homo sapiens; Breast, BT-20, 72 hours
Procedure: as §2, §3

COV434 = assay: PROLiFiler-Cell Panel Screening (CellTiterGlo); details: Ovary, COV434, 72 hours
Procedure: as §2, §3

Caki-2 = assay: PROLiFiler-Cell Panel Screening (CellTiterGlo); details: Homo sapiens; Kidney, Caki-2, 72 hours
Procedure: as §2, §3

DLD-1 = assay: PROLiFiler-Cell Panel Screening (CellTiterGlo); details: Homo sapiens; Colon, DLD-1, 72 hours
Procedure: as §2, §3

DU-145 = assay: PROLiFiler-Cell Panel Screening (CellTiterGlo); details: Homo sapiens; Prostate, DU-145, 72 hours
Procedure: as §2, §3

EFM-192A = assay: PROLiFiler-Cell Panel Screening (CellTiterGlo); details: Breast, 72 hours
Procedure: as §2, §3

EPLC-272H = assay: PROLiFiler-Cell Panel Screening (CellTiterGlo); details: Homo sapiens, Lung, 72 hours
Procedure: as §2, §3

HCC38 = assay: PROLiFiler-Cell Panel Screening (CellTiterGlo); details: Homo sapiens; Breast, HCC38, 72 hours
Procedure: as §2, §3

HCT-15 = assay: PROLiFiler-Cell Panel Screening (CellTiterGlo); details: Homo sapiens; Colon, HCT-15, 72 hours
Procedure: as §2, §3

HCT116 = assay: PROLiFiler-Cell Panel Screening (CellTiterGlo); details: Homo sapiens, HCT-116; Colon, HCT116, 72 hours
Procedure: as §2, §3

HL-60 = assay: PROLiFiler-Cell Panel Screening (CellTiterGlo); details: Homo sapiens; Blood, HL-60, 72 hours
Procedure: as §2, §3

HeLa = assay: PROLiFiler-Cell Panel Screening (CellTiterGlo); details: Homo sapiens, Cervix, 72 hours
Procedure: as §2, §3

HuH7 = assay: PROLiFiler-Cell Panel Screening (CellTiterGlo); details: Homo sapiens, Huh-7; Liver, HuH7, 72 hours
Procedure: as §2, §3

K562 = assay: PROLiFiler-Cell Panel Screening (CellTiterGlo); details: Homo sapiens; Blood, K562, 72 hours
Procedure: as §2, §3

LnCap = assay: PROLiFiler-Cell Panel Screening (CellTiterGlo); details: Homo sapiens, Prostate, 72 hours
Procedure: as §2, §3

NCI-H1838 = assay: PROLiFiler-Cell Panel Screening (CellTiterGlo); details: Homo sapiens; Lung, NCI-H1838, 72 hours
Procedure: as §2, §3

SK-OV3 = assay: PROLiFiler-Cell Panel Screening (CellTiterGlo); details: Homo sapiens, SK-OV-3; Ovary, SK-OV3, 72 hours
Procedure: as §2, §3

T98G = assay: PROLiFiler-Cell Panel Screening (CellTiterGlo); details: Homo sapiens, Brain, 72 hours
Procedure: as §2, §3

U118MG = assay: PROLiFiler-Cell Panel Screening (CellTiterGlo); details: Homo sapiens, U-118-MG, Brain, 72 hours
Procedure: as §2, §3

U2OS = assay: PROLiFiler-Cell Panel Screening (CellTiterGlo); details: Homo sapiens, Bone, 72 hours
Procedure: as §2, §3

U87MG = assay: PROLiFiler-Cell Panel Screening (CellTiterGlo); details: Homo sapiens, U-87 MG, Brain, 72 hours
Procedure: as §2, §3

Compound | IC50 (A2058) [nM] | IC50 (A549) [nM] | IC50 (BEN) [nM] | IC50 (BT-20) [nM] | IC50 (COV434) [nM] | IC50 (Caki-2) [nM] | IC50 (DLD-1) [nM] | IC50 (DU-145) [nM] | IC50 (EFM-192A) [nM] | IC50 (EPLC-272H) [nM] | IC50 (HCC38) [nM] | IC50 (HCT-15) [nM] | IC50 (HCT116) [nM] | IC50 (HL-60) [nM] | IC50 (HeLa) [nM] | IC50 (HuH7) [nM] | IC50 (K562) [nM] | IC50 (LnCap) [nM] | IC50 (NCI-H1838) [nM] | IC50 (SK-OV3) [nM] | also measured
CCCOc1c2cccc1Cc1cccc(c1OCc1nccn1C)Cc1cccc(c1OCCC)Cc1cccc(c1OCc1nccn1C)C2 [(2)] | 938 | 1040 | 3680 | 1270 | 732 | 2610 | 1080 | 1930 | 5450 | 1470 | 2530 | 2020 | 950 | 1450 | 1700 | 543 | 1890 | 1190 | 3480 | 1620 | proliferation index Nt/N0 (FIG. 1) [1]: clearly inhibits the proliferation; proliferation index Nt/N0 (FIG. 3) [2]: clearly inhibits the proliferation; IC50 [3]: 1840 nM; IC50 (T98G): 3110 nM; IC50 (U118MG): 2030 nM; IC50 (U2OS): 1060 nM; IC50 (U87MG): 2460 nM
CC(C)C[C@H](NC(=O)[C@H](Cc1ccccc1)NC(=O)c1cnccn1)B(O)O [bortezomib, reference compound] | 9.24 | 13.7 | 53.1 | 29.5 | 9.24 | 12.8 | 6.83 | 6.8 | 4.75 | 7.17 | 5.41 | 9.25 | 6.78 | 3.73 | 18.7 | 4.3 | 14.6 | 14.1 | 34.1 | 24 | IC50 (T98G): 11.4 nM; IC50 (U118MG): 4.14 nM; IC50 (U2OS): 5.83 nM; IC50 (U87MG): 8.02 nM
